# Laboratory results as given in ChEMBL document CHEMBL1240349, “Influence of tigecycline on expression of virulence factors in biofilm-associated cells of methicillin-resistant Staphylococcus aureus” (2010).
# Assays:
# Assay type in all cases: functional
# Staphylococcus aureus [1] = experiment: Decrease in capC gene expression in biofilm-associated cells of epidemic methicillin-resistant Staphylococcus aureus isolate 16 at 4 times MIC incubated for 1 hr by whole genome microarray relative to untreated control
# Staphylococcus aureus [2] = experiment: Decrease in capG gene expression in biofilm-associated cells of epidemic methicillin-resistant Staphylococcus aureus isolate 16 at 4 times MIC incubated for 1 hr by whole genome microarray relative to untreated control
# Staphylococcus aureus [3] = experiment: Decrease in cap8H gene expression in biofilm-associated cells of epidemic methicillin-resistant Staphylococcus aureus isolate 16 at 4 times MIC incubated for 1 hr by whole genome microarray relative to untreated control
# Staphylococcus aureus [4] = experiment: Decrease in capB gene expression in biofilm-associated cells of epidemic methicillin-resistant Staphylococcus aureus isolate 16 at 4 times MIC incubated for 1 hr by whole genome microarray relative to untreated control
# Staphylococcus aureus [5] = experiment: Increase in rho gene expression in biofilm-associated cells of epidemic methicillin-resistant Staphylococcus aureus isolate 16 at 4 times MIC incubated for 1 hr by whole genome microarray relative to untreated control
# Staphylococcus aureus [6] = experiment: Increase in infB gene expression in biofilm-associated cells of epidemic methicillin-resistant Staphylococcus aureus isolate 16 at 4 times MIC incubated for 1 hr by whole genome microarray relative to untreated control
# Staphylococcus aureus [7] = experiment: Increase in tsf gene expression in biofilm-associated cells of epidemic methicillin-resistant Staphylococcus aureus isolate 16 at 4 times MIC incubated for 1 hr by whole genome microarray relative to untreated control
# Staphylococcus aureus [8] = experiment: Increase in rplB gene expression in biofilm-associated cells of epidemic methicillin-resistant Staphylococcus aureus isolate 16 at 4 times MIC incubated for 1 hr by whole genome microarray relative to untreated control
# Staphylococcus aureus [9] = experiment: Decrease in asp23 gene expression in biofilm-associated cells of epidemic methicillin-resistant Staphylococcus aureus isolate 16 at 4 times MIC incubated for 1 hr by whole genome microarray relative to untreated control
# Staphylococcus aureus [10] = experiment: Decrease in tst gene expression in biofilm-associated cells of epidemic methicillin-resistant Staphylococcus aureus isolate 16 at 4 times MIC incubated for 1 hr by whole genome microarray relative to untreated control
# Staphylococcus aureus [11] = experiment: Increase in fnbB gene expression in biofilm-associated cells of epidemic methicillin-resistant Staphylococcus aureus isolate 16 at 4 times MIC incubated for 1 hr by RT-PCR relative to untreated control
# Staphylococcus aureus [12] = experiment: Increase in clfB gene expression in biofilm-associated cells of epidemic methicillin-resistant Staphylococcus aureus isolate 16 at 4 times MIC incubated for 1 hr by RT-PCR relative to untreated control
# Staphylococcus aureus [13] = experiment: Increase in ssaA gene expression in biofilm-associated cells of epidemic methicillin-resistant Staphylococcus aureus isolate 16 at 4 times MIC incubated for 1 hr by RT-PCR relative to untreated control
# Staphylococcus aureus [14] = experiment: Decrease in clpC gene expression in biofilm-associated cells of epidemic methicillin-resistant Staphylococcus aureus isolate 16 at 4 times MIC incubated for 1 hr by RT-PCR relative to untreated control
# Staphylococcus aureus [15] = experiment: Decrease in capG expression in biofilm-associated cells of epidemic methicillin-resistant Staphylococcus aureus isolate 16-1 at 4 times MIC incubated for 1 hr by RT-PCR relative to untreated control
# Staphylococcus aureus [16] = experiment: Decrease in clpC expression in biofilm-associated cells of epidemic methicillin-resistant Staphylococcus aureus isolate 16-1 at 4 times MIC incubated for 1 hr by RT-PCR relative to untreated control
# Staphylococcus aureus [17] = experiment: Decrease in dinR gene expression in biofilm-associated cells of epidemic methicillin-resistant Staphylococcus aureus isolate 16 at 4 times MIC incubated for 1 hr by whole genome microarray relative to untreated control
# Staphylococcus aureus [18] = experiment: Increase in gapR gene expression in biofilm-associated cells of epidemic methicillin-resistant Staphylococcus aureus isolate 16 at 4 times MIC incubated for 1 hr by whole genome microarray relative to untreated control
# Staphylococcus aureus [19] = experiment: Increase in saeR gene expression in biofilm-associated cells of epidemic methicillin-resistant Staphylococcus aureus isolate 16 at 4 times MIC incubated for 1 hr by whole genome microarray relative to untreated control
# Staphylococcus aureus [20] = experiment: Increase in dnaG gene expression in biofilm-associated cells of epidemic methicillin-resistant Staphylococcus aureus isolate 16 at 4 times MIC incubated for 1 hr by whole genome microarray relative to untreated control
# Staphylococcus aureus [21] = experiment: Increase in rpoC gene expression in biofilm-associated cells of epidemic methicillin-resistant Staphylococcus aureus isolate 16 at 4 times MIC incubated for 1 hr by whole genome microarray relative to untreated control
# Staphylococcus aureus [22] = experiment: Increase in pbp2 gene expression in biofilm-associated cells of epidemic methicillin-resistant Staphylococcus aureus isolate 16 at 4 times MIC incubated for 1 hr by whole genome microarray relative to untreated control
# Staphylococcus aureus [23] = experiment: Decrease in sdrD gene expression in biofilm-associated cells of epidemic methicillin-resistant Staphylococcus aureus isolate 16 at 4 times MIC incubated for 1 hr by whole genome microarray relative to untreated control
# Staphylococcus aureus [24] = experiment: Increase in clfB gene expression in biofilm-associated cells of epidemic methicillin-resistant Staphylococcus aureus isolate 16 at 4 times MIC incubated for 1 hr by whole genome microarray relative to untreated control
# Staphylococcus aureus [25] = experiment: Increase in cna expression in biofilm-associated cells of epidemic methicillin-resistant Staphylococcus aureus isolate 16-1 at 4 times MIC incubated for 1 hr by RT-PCR relative to untreated control
# Staphylococcus aureus [26] = experiment: Increase in fnbB expression in biofilm-associated cells of epidemic methicillin-resistant Staphylococcus aureus isolate 16-1 at 4 times MIC incubated for 1 hr by RT-PCR relative to untreated control
# Staphylococcus aureus [27] = experiment: Increase in ssaA expression in biofilm-associated cells of epidemic methicillin-resistant Staphylococcus aureus isolate 16-1 at 4 times MIC incubated for 1 hr by RT-PCR relative to untreated control
# Staphylococcus aureus [28] = experiment: Decrease in clfB expression in biofilm-associated cells of epidemic methicillin-resistant Staphylococcus aureus isolate 16-2 at 4 times MIC incubated for 1 hr by RT-PCR relative to untreated control
# Staphylococcus aureus [29] = experiment: Increase in cna expression in biofilm-associated cells of epidemic methicillin-resistant Staphylococcus aureus isolate 16-2 at 4 times MIC incubated for 1 hr by RT-PCR relative to untreated control
# Staphylococcus aureus [30] = experiment: Decrease in fnbB expression in biofilm-associated cells of epidemic methicillin-resistant Staphylococcus aureus isolate 16-2 at 4 times MIC incubated for 1 hr by RT-PCR relative to untreated control
# Staphylococcus aureus [31] = experiment: Increase in icaC expression in biofilm-associated cells of epidemic methicillin-resistant Staphylococcus aureus isolate 16-2 at 4 times MIC incubated for 1 hr by RT-PCR relative to untreated control
# Staphylococcus aureus [32] = experiment: Increase in isaA expression in biofilm-associated cells of epidemic methicillin-resistant Staphylococcus aureus isolate 16-2 at 4 times MIC incubated for 1 hr by RT-PCR relative to untreated control
# Staphylococcus aureus [33] = experiment: Decrease in capG expression in biofilm-associated cells of epidemic methicillin-resistant Staphylococcus aureus isolate 15 at 4 times MIC incubated for 1 hr by RT-PCR relative to untreated control
# Staphylococcus aureus [34] = experiment: Increase in ssaA expression in biofilm-associated cells of epidemic methicillin-resistant Staphylococcus aureus isolate 15 at 4 times MIC incubated for 1 hr by RT-PCR relative to untreated control
smiles,measurement,setting,value
CN(C)c1cc(NC(=O)CNC(C)(C)C)c(O)c2c1C[C@H]1C[C@H]3[C@H](N(C)C)C(O)=C(C(N)=O)C(=O)[C@@]3(O)C(O)=C1C2=O [TIGECYCLINE],fold change (FC),Staphylococcus aureus [1],3.14
same,fold change (FC),Staphylococcus aureus [2],2.3
same,fold change (FC),Staphylococcus aureus [3],2.18
same,fold change (FC),Staphylococcus aureus [4],2.08
same,fold change (FC),Staphylococcus aureus [5],2.15
same,fold change (FC),Staphylococcus aureus [6],2.35
same,fold change (FC),Staphylococcus aureus [7],3.23
same,fold change (FC),Staphylococcus aureus [8],13.38
same,fold change (FC),Staphylococcus aureus [9],8.61
same,fold change (FC),Staphylococcus aureus [10],2.39
same,fold change (FC),Staphylococcus aureus [11],3.03
same,fold change (FC),Staphylococcus aureus [12],7.5
same,fold change (FC),Staphylococcus aureus [13],2.04
same,fold change (FC),Staphylococcus aureus [14],1.14
same,fold change (FC),Staphylococcus aureus [15],1.01
same,fold change (FC),Staphylococcus aureus [16],1.14
same,fold change (FC),Staphylococcus aureus [17],3.31
same,fold change (FC),Staphylococcus aureus [18],9.12
same,fold change (FC),Staphylococcus aureus [19],2.02
same,fold change (FC),Staphylococcus aureus [20],2.19
same,fold change (FC),Staphylococcus aureus [21],3.28
same,fold change (FC),Staphylococcus aureus [22],3.91
same,fold change (FC),Staphylococcus aureus [23],2.46
same,fold change (FC),Staphylococcus aureus [24],4
same,fold change (FC),Staphylococcus aureus [25],3.42
same,fold change (FC),Staphylococcus aureus [26],3.03
same,fold change (FC),Staphylococcus aureus [27],2.04
same,fold change (FC),Staphylococcus aureus [28],1.18
same,fold change (FC),Staphylococcus aureus [29],1.2
same,fold change (FC),Staphylococcus aureus [30],1.53
same,fold change (FC),Staphylococcus aureus [31],1.6
same,fold change (FC),Staphylococcus aureus [32],3.7
same,fold change (FC),Staphylococcus aureus [33],1.58
same,fold change (FC),Staphylococcus aureus [34],1.17
